Patent US20230202997A1, “CHROMANOL, QUINONE OR HYDROQUINONE COMPOUNDS FOR TREATMENT OF SEPSIS” (Sulfateq B.V., priority 2020, published 2023)

Experiments:
[1] = tested on: IL-6 mRNA expression; experiment: Endothelial inflammatory activation after endotoxin, IL-6 mRNA (Example 5); assay type: cell-based, Human; conditions: HUVEC; 10 μM for 30 min
Procedure: (§1) Human Umbilical Cord Endothelial Cells (HUVEC, Lonza CC-2519) were maintained on 1% gelatin-coated culture flasks in RPMI1640 medium containing 20% fetal bovine serum, 2 mM Glutamine (Sigma-Aldrich), 1% Penicillin-Streptomycin solution (Sigma-Aldrich) and 50 μg/ml Bovine Pituitary Extract (Invitrogen). HUVEC were passaged by trypsinization when the cultures reach a confluency of 70%. For all experiments, HUVEC were seeded at 0.6·10^5 cells/cm^2 and allowed to adhere for 24 hours.
(§2) HUVEC cells were lysed in triZOL reagens (Invitrogen) and total RNA isolated according to manufacturers' instruction. 1 μg total RNA per sample was reverse transcribed using the FirstAid Reverse Transcription Kit (ThermoFisher). Copy-DNA equivalents of 5 ng total RNA were amplified on a ViiA7 Real-time PCR system (ThermoFisher, Waltham, Mass.) using iTaq Universal SYBR Green Supermix (Bio-Rad, Hercules, Calif.) and primers specific for tumor necrosis factor alpha (TNFα; sense 5′-[…]-3′, antisense 5′-[…]-3′), interleukin 1 beta (IL-1β; sense 5′-[…]-3′, antisense 5′-[…]-3′), interleukin-6 (IL-6; sense 5′-[…]-3′, antisense 5′-[…]-3′) and beta actin (ACTB; sense 5′-[…]-3′, antisense 5′-[…]-3′) as loading control. Amplification was performed for 40 cycles of 95° C. for 30 s, 60° C. for 1 min. Relative mRNA expression was calculated according to the δδCt-method.

[2] = tested on: IL-1β mRNA expression; experiment: Endothelial inflammatory activation after endotoxin, IL-1β mRNA (Example 5); assay type: cell-based, Human; conditions: HUVEC; 10 μM for 30 min
Procedure: as §1, §2

[3] = tested on: mitochondrial oxidative stress in HUVEC; experiment: LPS-induced mitochondrial superoxide in HUVEC (MitoSox); assay type: cell-based, Human; conditions: 10 μM for 30 min, LPS 100 ng/ml 24 hours
Procedure: as §1
(§3) The production of cellular and mitochondrial oxidative stress was measured using fluorescent probes for cellular and mitochondrial superoxide, i.e. dihydroethidium (DHE) and MitoSox (ThermoFisher), respectively. HUVEC were incubated with BN-80933, SUL-138 or SUL-150 (all 10 μM) for 30 min. Next, HUVEC were exposed to LPS (100 ng/ml) for an additional 24 hours. In the final hour of incubation, 2.5 μM of DHE or MitoSox was applied to each sample. HUVEC were washed in PBS and fixed in 4% paraformaldehyde at room temperature for 15 min. Nuclear staining was performed by 5 μM […] (DAPI) and fluorescence intensity of the samples was recorded in a CLARIOStar Plus plate reader (BMG Labtech) equipped with the appropriate filter sets. Fluorescence recordings for DHE and MitoSox were corrected for DAPI fluorescence. All experiments were performed in quadruplicate.

[4] = tested on: HUVEC; experiment: Cell viability after hypothermia-rewarming stress (Neutral Red); assay type: cell-based, Human; conditions: 10 μM for 1 hour, 4° C. for 24 hours followed by 37° C. for 3 hours
Procedure: as §1
HUVEC were pre-treated with BN-80933, SUL-138 or SUL-150 (all 10 μM) for 1 hour in a humidified incubator at 37° C. Following pre-treatment, HUVEC were placed in a cold room (2-8° C.) for 24 hours and subsequently placed back at 37° C. for a 3 hour rewarming period. After 1 hour of rewarming, cell culture medium was replaced by prewarmed and filtered 0.4 mg/mL Neutral Red (#N463 8, Sigma-Aldrich) in culture medium. After the remaining 2 hour rewarming period, HUVEC were washed with PBS and NRU was solubilized in 100 μL resorption solution (50% ethanol, 1% ascetic acid in dH2O). The absorbance was measured at a wavelength of 550 nm on a BioTek ELx808 plate reader. The recorded OD550 nm values were normalized to control samples that were maintained at 37° C. at all times, which were assumed to be 100% viable.

[5] = tested on: NO production in RAW264.7 macrophages; experiment: Macrophage NO production (nitrate in conditioned medium), basal and after LPS; assay type: cell-based, Mouse
Procedure: Mouse macrophage RAW264.7 cells (ATCC #TIB-71) were maintained in DMEM medium containing 10% fetal bovine serum, and 1% Penicillin-Streptomycin solution (Sigma-Aldrich). […] For all experiments, RAW264.7 cells were seeded at 0.5·10^5 cells/cm^2 and allowed to adhere for 24 hours. Cellular production of NO was approximated by measuring nitrate concentrations in culture media using the Measure-IT™ High-Sensitivity Nitrite Assay Kit (#M36051, ThermoFisher) according to manufacturer's instructions. […] Therefore, nitrate concentrations in conditioned media are a good approximate to assess cellular NO production. 50 μl conditioned medium derived from a single 96-wells plate well was used per assay and normalized against protein concentration. All experiments were performed in quadruplicate. LPS induces macrophage NO production by activating iNOS. RAW264.7 macrophages were pre-treated with vehicle (DMSO), BN-80933, SUL-138, or SUL-150 or (all 10 μM) prior to endotoxin (LPS 100 ng/ml) exposure for 24 hours. The nitrate levels in the conditioned medium from LPS exposed RAW264.7 macrophages averaged at 83 pmol/mg protein (˜16-fold increase versus non-exposed RAW264.7 cells, p=0.001).

[6] = tested on: TNFα mRNA expression; experiment: Endothelial inflammatory activation after endotoxin, TNFα mRNA (Example 5); assay type: cell-based, Human; conditions: HUVEC; 10 μM for 30 min
Procedure: as §1, §2

[7] = tested on: cytoplasmic oxidative stress in HUVEC; experiment: LPS-induced cellular superoxide in HUVEC (DHE); assay type: cell-based, Human; conditions: 10 μM for 30 min, LPS 100 ng/ml 24 hours
Procedure: as §1, §3

[8] = tested on: NO production in HUVEC; experiment: Endothelial NO production (nitrate in conditioned medium), basal and after LPS; assay type: cell-based, Human
Procedure: as §1
Cellular production of NO was approximated by measuring nitrate concentrations in culture media using the Measure-IT™ High-Sensitivity Nitrite Assay Kit (#M36051, ThermoFisher) according to manufacturer's instructions. […] Therefore, nitrate concentrations in conditioned media are a good approximate to assess cellular NO production. 50 μl conditioned medium derived from a single 96-wells plate well was used per assay and normalized against protein concentration. All experiments were performed in quadruplicate.
Endotoxins suppress endothelial NO production by limiting the activity of eNOS. HUVEC were pre-treated with vehicle (DMSO), BN-80933, SUL-138, or SUL-150 or (all 10 μM) prior to endotoxin (LPS 100 ng/ml) exposure for 24 hours. The nitrate levels in the conditioned medium from endothelial cells exposed to LPS averaged at 160 pmol/mg protein (˜33% reduction versus non LPS exposed HUVEC, p=0.002), which was lower than basal control levels. BN-80933 further suppressed the nitrate levels in the conditioned medium (FIG. 7A) to an average of 90 pmol/mg protein (p=0.008).

[9] = tested on: IL-6 mRNA expression; experiment: Inhibition of LPS-induced IL-6 mRNA expression in HUVEC; assay type: cell-based, Human; conditions: 10 μM for 30 min, then LPS 24 hours
Procedure: as §1
(§4) HUVEC and NRK52E cells were pre-incubated with SUL compounds (10 μM) for 30 min and subsequently exposed to LPS for 24 hours under standard culture conditions. Cells were lysed in triZOL reagens (Invitrogen) and total RNA isolated according to manufacturers' instruction. 1 μg total RNA per sample was reverse transcribed using the FirstAid Reverse Transcription Kit (ThermoFisher). Copy-DNA equivalents of 5 ng total RNA were amplified on a ViiA7 Real-time PCR system (ThermoFisher, Waltham, Mass.) using iTaq Universal SYBR Green Supermix (Bio-Rad, Hercules, Calif.) and primers specific for tumor necrosis factor alpha, interleukin 1 beta, interleukin-6 and beta actin as loading control. Amplification was performed for 40 cycles of 95° C. for 30 s, 60° C. for 1 min. Relative mRNA expression was calculated as 2^−(Cq^gene^−Cq^reference^) and normalized to unstimulated control cells (100% inhibition) and vehicle-treated and LPS exposed cells (0% inhibition). The following primers were used: […]

[10] = tested on: IL-1β mRNA expression; experiment: Inhibition of LPS-induced IL-1β mRNA expression in HUVEC; assay type: cell-based, Human; conditions: 10 μM for 30 min, then LPS 24 hours
Procedure: as §1, §4

[11] = tested on: TNFα mRNA expression; experiment: Inhibition of LPS-induced TNFα mRNA expression in HUVEC; assay type: cell-based, Human; conditions: 10 μM for 30 min, then LPS 24 hours
Procedure: as §1, §4

[12] = tested on: IL-1β mRNA expression; experiment: Inhibition of LPS-induced IL-1β mRNA expression in NRK52E; assay type: cell-based, Rat; conditions: 10 μM for 30 min, then LPS 24 hours
Procedure: (§5) Rat kidney epithelial cells (ATCC #CRL-1571) were maintained in DMEM medium containing 10% fetal bovine serum, and 1% Penicillin-Streptomycin solution (Sigma-Aldrich). NRK52E cells were passaged by trypsinization when the cultures reached a confluency of 70%. For all experiments, NRK52E cells were seeded at 0.6·10^5 cells/cm^2 and allowed to adhere for 24 hours.
as §4

[13] = tested on: IL-6 mRNA expression; experiment: Inhibition of LPS-induced IL-6 mRNA expression in NRK52E; assay type: cell-based, Rat; conditions: 10 μM for 30 min, then LPS 24 hours
Procedure: as §5, §4

[14] = tested on: TNFα mRNA expression; experiment: Inhibition of LPS-induced TNFα mRNA expression in NRK52E; assay type: cell-based, Rat; conditions: 10 μM for 30 min, then LPS 24 hours
Procedure: as §5, §4

[15] = 10 μM pre-treatment, LPS 100 ng/ml for 24 hours

SMILES: Cc1c(C)c2c(c(C)c1O)CC[C@@](C)(C(=O)N1CCN(c3ccc(NC(=N)c4cccs4)cc3)CC1)O2 [BN-80933, reference compound]
- LPS-induced mRNA expression of IL-6 [1]: does not preclude the LPS-induced mRNA expression of the interleukins IL-1β and IL-6
- LPS-induced mRNA expression of IL-1β [2]: does not preclude the LPS-induced mRNA expression of the interleukins IL-1β and IL-6
- LPS-induced mitochondrial oxidative stress (MitoSox) [3]: not affected by the pre-treatment with BN-80933
- reduction in cell viability versus normothermic control cells [4]: ~55%
- LPS-induced increase in extracellular nitrate level [5, 15]: blunted the LPS-induced increase in extracellular nitrate level
- basal production of extracellular nitrate ([5]; no LPS, 10 μM): Neither BN-80933, SUL-138, nor SUL-150 affected the basal production of extracellular nitrate
- LPS-induced mRNA expression of TNFα [6]: precludes the induction of mRNA expression of the pro-inflammatory cytokine TNFα
- LPS-induced cytoplasmic oxidative stress (DHE) [7]: mitigates the induction of cytoplasmic oxidative stress
- nitrate levels in the conditioned medium after LPS [8, 15]: 90 pmol/mg protein
- suppression of basal endothelial NO production (nitrate in conditioned medium) ([8]; no LPS, 10 μM): ~38%

SMILES: Cc1c(C)c2c(c(C)c1O)CC[C@@](C)(C(=O)N[C@@H]1CCCNC1)O2 [SUL-13, (2S)-6-hydroxy-2,5,7,8-tetramethyl-N-((R)-piperidin-3-yl)-3,4-dihydro-1-benzopyran-2-carboxamide]
- inhibition of LPS-induced mRNA expression of IL-6 [9]: 45.7 ± 9.1 %
- inhibition of LPS-induced mRNA expression of IL-1β [10]: 38.6 ± 4.2 %
- inhibition of LPS-induced mRNA expression of TNFα [11]: 41.2 ± 8.2 %

SMILES: Cc1c(C)c2c(c(C)c1O)CCC(C)(C(N)=O)O2 (stereo not shown) [SUL-89, 6-hydroxy-2,5,7,8-tetramethyl-3,4-dihydro-2H-1-benzopyran-2-carboxamide, reference compound]
- inhibition of LPS-induced mRNA expression of IL-1β [12]: 12.3 ± 6.4%
- inhibition of LPS-induced mRNA expression of IL-6 [13]: 8.7 ± 4.6%
- inhibition of LPS-induced mRNA expression of TNFα [14]: 17.5 ± 3.4%

SMILES: Cc1c(C)c2c(c(C)c1O)CCC(C)(C(=O)NCc1ccccc1)O2 (stereo not shown) [SUL-96, N-benzyl-6-hydroxy-2,5,7,8-tetramethyl-3,4-dihydro-2H-1-benzopyran-2-carboxamide]
- inhibition of LPS-induced mRNA expression of IL-1β [12]: 81.7 ± 7.2 %
- inhibition of LPS-induced mRNA expression of IL-6 [13]: 89.9 ± 5.8 %
- inhibition of LPS-induced mRNA expression of TNFα [14]: 85.4 ± 4.7 %
